# Source: the supplement of paper PMC5412046
# Structures can show the parent of a compound that is named as a salt.
# Assays:
# SB.mhdgc-1 = assay: AC50 for growth inhibition (viability) (log10 M); higher = less potent; conditions: SB.mhdgc-1 (hereditary c.1380delA CDH1 gastric cancer)
# Outline: (§1)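 In 1536-well plates, each well held 500 patient-derived gastric cancer cells (hereditary or sporadic) in 5 μL medium. Compound in DMSO, 23 nL per well, was pinned in 11 threefold dilutions starting at a final 46 μM. Following 48 h of exposure, cells had CellTiter-Glo for 30 min at room temperature before ViewLux luminescence reading. Only high-quality curve classes from four-parameter fits of DMSO-normalised viability gave the log half-maximal activity concentration.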
# SB.msgc-1 = assay: as above; conditions: SB.msgc-1 (sporadic gastric cancer)
# Outline: as §1
SMILES,AC50 for growth inhibition (log10 M) (SB.mhdgc-1),AC50 for growth inhibition (log10 M) (SB.msgc-1)
COC1=C(OCCCN2CCOCC2)C=CC\3=C1/N=C(/NC(=O)C4=CN=C(N)N=C4)N5CC/N=C35 [BAY-80-6946],-6.84,-7.44
C[C@]\1(CCS\C(=N1)N)C2=CC(=C(F)C=C2F)C3=CN=CN=C3,-4.73,-4.63
CC[C@@H]1/C=C(\C)C[C@H](C)C[C@H](OC)[C@H]2O[C@@](O)(C(=O)C(=O)N3CCCC[C@H]3C(=O)O[C@H](/C(C)=C/[C@@H]3CC[C@H](Cl)[C@H](OC)C3)[C@H](C)[C@@H](O)CC1=O)[C@H](C)C[C@@H]2OC [Pimecrolimus],-4.98,-4.93
CCN(CC)CCCC(C)Nc1ccnc2cc(Cl)ccc12 (configuration not stated) [Chloroquine (CQ)],-4.98,-4.73
Cc1ccc(CN2CCNCC2)cc1NC(=O)CNc1ccc(F)c(F)c1,-5.93,-5.38
CCC[C@H](NC(=O)/C(C#N)=C/c1cccc(Br)n1)c1ccccc1 [Degrasyn],-5.58,-5.43
CC1(C)O[C@@H]2C[C@H]3[C@@H]4C[C@H](F)C5=CC(=O)C=C[C@]5(C)[C@@]4(F)[C@@H](O)C[C@]3(C)[C@]2(C(=O)CO)O1 [Fluocinolone acetonide],-5.33,-4.93
O=C1NC(=O)/C(=C/c2ccc3nccnc3c2)S1,-4.84,-4.89
CCc1nc(N)nc(N)c1-c1ccc(Cl)cc1 [Pyrimethamine],-5.38,-5.48
C[C@]12CC[C@H]3[C@@H](C\C=C/4C[C@@H](O)CC[C@]34C)[C@@H]1CCC2=O [Dehydroepiandrosterone],-5.78,-4.78
C[C@]12CC[C@@H]3c4ccc(O)cc4CC[C@H]3[C@@H]1CC[C@@H]2O [Estradiol],-5.28,-4.93
CCn1c(-c2nonc2N)nc2cnc(Oc3cccc(NC(=O)c4ccc(OCCN5CCOCC5)cc4)c3)cc21,-4.98,-5.18
CCN1CCC(n2cc(CNc3cc(Cl)c4ncc(C#N)c(Nc5ccc(F)c(Cl)c5)c4c3)nn2)CC1 [Wyeth Cot inhibitor-2],-5.03,-4.73
COc1cc2c(cc1OC)[C@@H]1Cc3ccc(OC)c(OC)c3CN1CC2 [Rotundine],-5.28,-4.73
Cc1n[nH]c2ccc(-c3cncc(OC[C@@H](N)Cc4c[nH]c5ccccc45)c3)cc12,-6.03,-6.08
COC(=O)C1C2CC3c4[nH]c5cc(OC)ccc5c4CCN3CC2CC(OC(=O)c2cc(OC)c(OC)c(OC)c2)C1OC (configuration not stated) [Reserpine],-5.43,-5.43
NC/1=N/C2=C([NH]C=N2)C(=S)N1 [Tioguanine],-5.03,-5.58
C[C@@H]\1COC(=N1)\NC2=CC3=C(C=C2)N=CN=C3NC4=CC(=C(OCC5=NC=CS5)C=C4)Cl [Varlitinib tosylate],-6.63,-6.53

SMILES,AC50 for growth inhibition (log10 M) (SB.mhdgc-1),AC50 for growth inhibition (log10 M) (SB.msgc-1)
CC(C)OC(=O)OCOP(=O)(CO[C@H](C)Cn1cnc2c(N)ncnc21)OCOC(=O)OC(C)C.O=C(O)C=CC(=O)O [Tenofovir Disoproxil Fumarate],-4.68,-4.78
Cc1cccc(/C=N/Nc2cc(N3CCOCC3)nc(OCCc3ccccn3)n2)c1 [Apilimod],-4.88,-4.78
C[C@@H]1C[C@H]2[C@@H]3CC\C4=C\C(=O)\C=C/[C@]4(C)[C@@]3(Cl)[C@@H](O)C[C@]2(C)[C@@]1(OC(=O)C5=CC=CO5)C(=O)CCl [Mometasone furoate],-4.83,-5.03
Cc1[nH]c2ccccc2c1CCNCc1ccc(/C=C/C(=O)NO)cc1 [Panobinostat],-6.08,-6.98
CC[C@@]1(O)C[C@H](O[C@H]2C[C@H](N(C)C)[C@H](O[C@H]3C[C@H](O)[C@H](O[C@H]4CCC(=O)[C@H](C)O4)[C@H](C)O3)[C@H](C)O2)c2c(cc3c(c2O)C(=O)c2c(O)cccc2C3=O)[C@H]1C(=O)OC [Aclarubicin],-6.78,-6.28
CC[C@@H]1C(=O)N(C)c2cnc(Nc3ccc(C(=O)NC4CCC(N5CCN(CC6CC6)CC5)CC4)cc3OC)nc2N1C(C)C (some centres not stated) [Volasertib],-5.08,-7.03
N=c1c2c(-c3ccccc3)c(-c3ccccc3)n(Cc3ccccc3)c2ncn1[C@H]1CC[C@H](O)CC1,-4.58,-4.73
CC[C@@H](C)[C@H](NC(=O)[C@H](CC1CCCCC1)NC(=O)c1ccno1)C(=O)N1CCC2(CCc3ccccc32)CC1 [GB 83],-4.88,-4.98
COc1ccc(Cc2nccc3cc(OC)c(OC)cc23)cc1OC [Papaverine hydrochloride],-6.88,-4.73
CCCCCC[C@H]1C(=O)O[C@H](C)[C@H](NC(=O)c2cccc(NC=O)c2O)C(=O)O[C@@H](C)[C@@H]1OC(=O)CC(C)C [Antimycin A],-7.08,-7.13
CC(C)Oc1ccc(C(=O)N[C@H](CNC(=O)CN(C)C)Cc2ccc(-c3cn4cccc([C@H](C)O)c4n3)cc2)cc1Cl,-5.18,-6.63
C#C[C@]1(O)CC[C@H]2[C@@H]3CCc4cc(O)ccc4[C@H]3CC[C@@]21C [Ethinylestradiol],-4.78,-4.83
C=CCc1cccc(/C=N/NC(=O)CN2CCN(Cc3ccccc3)CC2)c1O [PAC-1],-5.13,-5.23
CC1=C(CC(=O)O)c2cc(F)ccc2/C1=C\c1ccc([S+](C)[O-])cc1 (configuration not stated) [Sulindac],-5.93,-5.53
c1cc(OCCN2CCCCC2)cc(-c2n[nH]c3ccc(-c4nc[nH]n4)cc23)c1 [CC-401],-4.78,-4.78
CCOC(=O)[C@H](CCc1ccccc1)N[C@H]1CS[C@H](c2cccs2)CN(CC(=O)O)C1=O.Cl [Temocapril hydrochloride],-6.28,-5.88
COc1cccc2c1C(=O)c1c(O)c3c(c(O)c1C2=O)C[C@@](O)(C(=O)CO)C[C@@H]3O[C@H]1C[C@H](N)[C@@H](O)[C@H](C)O1 [Epirubicin hydrochloride],-6.93,-6.18
CN(C)C1=CC=C(C=C1)C(C2=CC=C(C=C2)N(C)C)=C/3\C=C/C(/C=C3)=[N+](C)C [Methylrosaniline chloride],-6.03,-5.78
